In patent US6525017B1, “Using glutathiane to protect neurons from injury” (The Children's Medical Center Corporation, priority 1989, dated 2003):

What was measured:
Type in all cases: cell-based
NMDA receptor [1] = test: NMDA-induced responses recorded in intact chick retina (eyecup, optic nerve DC potential)
Method: Eyecups were obtained from 2-to 5-day-old chicks and continuously superfused at 20-25° C. at a rate of 8 ml/min with Tyrodes solution (130 mM NaCl, 3 mM KCl, 17 mM dextrose, 20 mM NaHCO3, 0.01% w/v phenol red; bubbled with a gas mixture of 95% O2 and 5% CO2) containing 5 mM MgCl2 to reduce synaptic activity. […] Traces were triggered by the opening of two solenoid valves that shunted approximately 200 μl of agonist (1, 1-dimethyl-4-phenyl-piperazinium iodide, DMPP or NMDA) into the perfusion line, Agonists reached the preparation approximately 7s later. […] Some experiments were performed in the presence of 10 μg/ml catalase and 1 μg/ml superoxide dismutase. Antagonists, reducing agents, or oxidizing agents were introduced directly via the perfusate.

non-NMDA receptors = test: Whole-cell currents elicited by non-NMDA agonists in rat retinal ganglion cells; conditions: 125 μM kainate, 60 μM AMPA, 30 μM quisqualate
Method: (§1) The third central neuronal preparation in which the effects of oxidation and reduction on NMDA responses were tested was the isolated rat retinal ganglion cell. Postnatal retinal ganglion cells were identified and cultured as described in Lipton et al., supra. Physiological solutions and experimental protocol were the same as described for cortical neurons (Example 2), except that TTX was excluded from the extracellular fluid, since whole-cell recordings were performed on neurons that were solitary and had no apparent connections to other cells and no spontaneous action potentials.
In the retinal ganglion cells, we further tested the effects of DTT and DTNB on responses elicited by glutamate analogs acting at non-NMDA receptors to confirm our previous observations in the chick retina, i.e., a lack of effect of reduction and oxidation on responses induced by agonists acting at non-NMDA receptors.

NMDA receptor [2] = test: Whole-cell NMDA responses in isolated rat retinal ganglion cells
Method: as §1
These cells have well-characterized, albeit small, NMDA responses. Treatment with 2 mM DTT (1-3 min) produced potentiation of the response elicited by 200 μM NMDA and 1 μM glycine (250%±130% of control; range, 220%-320%). […] Glycine (1 μM) potentiation of NMDA (200 μM) responses occurred in both the reduced and the oxidized states. […] The effects of reduction and oxidation could be repeated in alternating fashion in these cells for as long as the recording remained stable.

NMDA receptor [3] = test: Whole-cell patch-clamp NMDA responses in cultured rat cortical neurons
Method: The effects of reduction and oxidation on the NMDA response were further examined in cultured mammalian central neurons with the use of patch electrodes. Experiments were performed on neurons in primary cultures of CD rat neocortex derived from embryonic day 16 fetuses and plated onto glass coverslips coated with collagen and poly-L-lysine. The growth medium consisted of a v/v mixture of 80% DMEM (Sigma D5530), 10% F-12 (Sigma), 10% heat-inactivated, iron-supplemented serum (Hyclone), with 25 mM HEPES, 24 U/ml penicillin, and 24 μg/ml streptomycin, supplemented to 2 mM glutamine. Recordings were performed on 3- to 13-week-old cultures, and neurons studied ranged from 12 to 18 μm in diameter. The extracellular solution for the physiological experiments contained 137 mM NaCl, 1 mM NaHCO3, 0.34 mM NaHPO4, 5.36 mM KCl, 0.44 mM KH2PO4, 2.5 mM CaCl2, 5 mM HEPES-NaOH, 22.2 mM dextrose, 0.001% (v/v) phenol red, adjusted to pH 7.2 with 0.3 N NaOH (no added magnesium, except where noted). Tetrodotoxin (TTX) (1 μM) was routinely added to reduce synaptic activity. The intracellular (pipette) solution contained 120 mM CsCl, 20 mM TEA-Cl, 2 mM MgCl2, 1 mM CaCl2, 1.5-2.25 mM EGTA, and 10 mM HEPES-NAOH, adjusted to pH 7.2 with concentrated TEA-OH. Electrophysiological measurements were performed at 33° C.-35° C. with patch electrodes (4-8 MΩ), essentially as described in Lipton et al. J. Physiol 385:361, 1987. Lipton et al. 1987 includes the following disclosure of electrophysiological recordings by patch clamp from solitary neurons:
“. . . patch-clamp recordings were made . . . following the methods of Hamill et al. (1981) using an EPC-7 amplifier (List Electronic, Darmstadt, F.R.G.). Patch electrodes had resistances of 3-5 MΩ when filled with Na^+ or K^+ saline. Patch electrodes were used to record whole-cell currents under voltage clamp as well as single-channel currents from patches of membrane excised from the cell. The indifferent electrode was a Ag-AgCl wire connected to the culture dish via an agarose bridge. Holding and command potentials (VH and Vc, respectively (were generated by a digital-to-analog converter (Cheshire Data, Hamden, Conn., U.S.A.) interfaced with a PDP 11/23 or 11/73 computer (Digital Equipment Corp., Maynard, Mass., U.S.A.). Data collection was also controlled by the computer; data were sampled and digitized with a 12-bit, 125 kHz analog-to-digital converter (Data Translation, Marlboro, Mass., U.S.A., Model DT2782DMA) and viewed on a Hewlett-Packard digital display (Model 1345A). The sampling rate was set at 10 μs to 50 ms depending on the level of analysis. Using the amplifier test circuit, the digitized data were accurate to within 1%. The signals were low-pass filtered at a setting appropriate to the sampling frequency (Ithaco, Ithaca, N.Y., U.S.A., Model 4302 with a Bessel frequency cut-off characteristic of 48 dB/octave). Leakage currents and liquid junction potentials were corrected as described in Fenwick, Marty & Neher [J. Physiol. 331:577-597] (1982a). Using the EPC-7 circuit, analog compensation of the series resistance was applied. This ensured a relatively small error due to the voltage drop across the series resistance (less than or equal to that calculated by Marty & Neher, 1985 [J. Physiol. 367:117-141]). Data were stored on a 30 megabyte Winchester disk (Data Systems Design, San Jose, Calif., U.S.A., Model 880). […]

| Structure (SMILES) | decrease of NMDA response following oxidation (NMDA receptor [1]; 0.1-1.0 mM DTNB applied for 5 min, compared with controls, mean ± spread) | decrease of NMDA response following oxidation, range (NMDA receptor [1]; 0.1-1.0 mM DTNB applied for 5 min, range) | responses elicited by kainate, AMPA or quisqualate after oxidation (non-NMDA receptors; 200 μM DTNB) | decrement of the native NMDA response (NMDA receptor [2]; 0.1-0.2 mM DTNB, mean ± spread) | decrement of the native NMDA response, range (NMDA receptor [2]; 0.1-0.2 mM DTNB, range) | decrease of NMDA response (NMDA receptor [3]; 1-3 min treatment with 0.1-1.0 mM DTNB, mean ± spread) | decrease of NMDA response, range (NMDA receptor [3]; 1-3 min treatment with 0.1-1.0 mM DTNB, range) | response to NMDA, % of control (potentiation) (NMDA receptor [1]; 100 μM NMDA, DTT 1-2 mM applied for 10-25 min, mean ± spread) | response to NMDA, % of control, range (NMDA receptor [1]; 100 μM NMDA, DTT 1-2 mM applied for 10-25 min, range) | currents elicited by kainate, AMPA or quisqualate after reduction (non-NMDA receptors; 1 mM DTT) | NMDA response, % of control (potentiation) (NMDA receptor [2]; 200 μM NMDA + 1 μM glycine, 2 mM DTT 1-3 min, mean ± spread) | NMDA response, % of control, range (NMDA receptor [2]; 200 μM NMDA + 1 μM glycine, 2 mM DTT 1-3 min, range) | voltage-clamped NMDA response, % of control (potentiation) (NMDA receptor [3]; 10-100 μM NMDA + 1 μM glycine, 1-5 min treatment with 0.5-2.0 mM DTT, mean ± spread) | voltage-clamped NMDA response, % of control, range (NMDA receptor [3]; 10-100 μM NMDA + 1 μM glycine, 1-5 min treatment with 0.5-2.0 mM DTT, range) | NMDA response on reapplication of DTT after oxidation (NMDA receptor [3]; after DTNB oxidation) |
| --- | --- | --- | --- | --- | --- | --- | --- | --- | --- | --- | --- | --- | --- | --- | --- |
| O=C(O)c1cc(SSc2ccc([N+](=O)[O-])c(C(=O)O)c2)ccc1[N+](=O)[O-] [DTNB, 5′-5′-dithiobis-2-nitrobenzoic acid] | 81.6%±24.1% | 43%-100% | did not affect | 49.4%±9.4% | 37%-60% | 22.9%±12.9% | 0%-39.5% | – | – | – | – | – | – | – | – |
| O[C@@H](CS)[C@@H](O)CS [DTT, dithothreitol] | – | – | – | – | – | – | – | 530%±280% | 200%-860% | no substantial effect | 250%±130% | 220%-320% | 250%±140% | 220%-330% | always restored the NMDA response to greater than control levels |
